# Reference: PMC8800111 (The Journal of Biological Chemistry, 2021)
# Experiments:
# Type in all cases: cell-based
# [1] = target: proteins of U3A human fibrosarcoma cells (4462 proteins detected) (Homo sapiens, UniProt P35249); details: protein RFC4; U3A, 10 μM, 2 h
# [2] = target: proteins of U3A human fibrosarcoma cells (4462 proteins detected) (Homo sapiens, UniProt P40123); details: protein CAP2; U3A cells
# [3] = target: proteins of U3A human fibrosarcoma cells (4462 proteins detected) (Homo sapiens, UniProt O95983); details: protein MBD3; U3A cells
# [4] = target: proteins of U3A human fibrosarcoma cells (4462 proteins detected) (Homo sapiens, UniProt Q8TBF4); details: protein ZCRB1; soluble abundance after heat, U3A cells
# [5] = target: proteins of U3A human fibrosarcoma cells (4462 proteins detected) (Homo sapiens, UniProt Q9Y6A4); details: protein CFAP20; soluble abundance after heat, U3A cells
# Sequence of proteins of U3A human fibrosarcoma cells (4462 proteins detected) (Homo sapiens, UniProt Q9Y6A4) (Q9Y6A4 whole entry): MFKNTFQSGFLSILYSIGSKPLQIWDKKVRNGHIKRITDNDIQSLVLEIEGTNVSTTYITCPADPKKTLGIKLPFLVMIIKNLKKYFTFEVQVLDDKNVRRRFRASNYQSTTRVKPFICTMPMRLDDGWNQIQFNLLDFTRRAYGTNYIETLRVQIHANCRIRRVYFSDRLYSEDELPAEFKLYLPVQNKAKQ
# [6] = target: proteins of U3A human fibrosarcoma cells (4462 proteins detected) (Homo sapiens, UniProt Q15370); details: protein TCEB2, U3A cells
# [7] = target: proteins of U3A human fibrosarcoma cells (4462 proteins detected) (Homo sapiens, UniProt Q13492); details: protein PICALM; U3A cells
# [8] = target: proteins of U3A human fibrosarcoma cells (4462 proteins detected) (Homo sapiens, UniProt Q9BZE1); details: protein MRPL37; U3A, 10 μM, 2 h
# [9] = target: proteins of U3A human fibrosarcoma cells (4462 proteins detected) (Homo sapiens, UniProt Q6P3W7); details: protein SCYL2, U3A cells
# Sequence of proteins of U3A human fibrosarcoma cells (4462 proteins detected) (Homo sapiens, UniProt Q6P3W7) (Q6P3W7 whole entry): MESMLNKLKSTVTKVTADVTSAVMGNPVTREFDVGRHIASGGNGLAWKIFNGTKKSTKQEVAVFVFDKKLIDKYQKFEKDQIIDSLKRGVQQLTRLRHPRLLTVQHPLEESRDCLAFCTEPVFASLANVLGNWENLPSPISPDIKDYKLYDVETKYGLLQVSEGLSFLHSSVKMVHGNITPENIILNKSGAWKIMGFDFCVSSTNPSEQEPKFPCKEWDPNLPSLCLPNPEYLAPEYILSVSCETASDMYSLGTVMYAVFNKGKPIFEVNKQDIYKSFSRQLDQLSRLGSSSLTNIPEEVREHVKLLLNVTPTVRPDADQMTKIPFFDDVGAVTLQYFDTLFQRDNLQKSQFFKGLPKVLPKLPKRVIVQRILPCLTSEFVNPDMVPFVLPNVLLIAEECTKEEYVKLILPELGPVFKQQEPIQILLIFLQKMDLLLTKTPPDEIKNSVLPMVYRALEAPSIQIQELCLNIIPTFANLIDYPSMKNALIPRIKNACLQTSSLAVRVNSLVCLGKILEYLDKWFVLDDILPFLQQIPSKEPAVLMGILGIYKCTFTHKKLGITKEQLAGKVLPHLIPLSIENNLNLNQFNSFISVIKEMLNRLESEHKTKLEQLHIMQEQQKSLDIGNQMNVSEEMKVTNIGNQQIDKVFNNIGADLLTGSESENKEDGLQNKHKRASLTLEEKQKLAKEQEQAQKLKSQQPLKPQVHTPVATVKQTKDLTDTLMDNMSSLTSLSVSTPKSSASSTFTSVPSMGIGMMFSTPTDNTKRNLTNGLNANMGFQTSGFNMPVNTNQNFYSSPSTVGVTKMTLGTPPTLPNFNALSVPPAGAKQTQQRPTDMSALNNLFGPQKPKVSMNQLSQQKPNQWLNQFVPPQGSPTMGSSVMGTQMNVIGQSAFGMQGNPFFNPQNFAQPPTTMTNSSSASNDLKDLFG
# [10] = target: proteins of U3A human fibrosarcoma cells (4462 proteins detected) (Homo sapiens, UniProt Q9Y3C8); details: protein UFC1; U3A cells
# [11] = target: proteins of U3A human fibrosarcoma cells (4462 proteins detected) (Homo sapiens, UniProt P20700); details: protein LMNB1; soluble abundance after heat, U3A cells
# [12] = target: proteins of U3A human fibrosarcoma cells (4462 proteins detected) (Homo sapiens, UniProt Q9H9Q2); details: protein COPS7B; U3A cells
# [13] = target: proteins of U3A human fibrosarcoma cells (4462 proteins detected) (Homo sapiens, UniProt Q5PSV4); details: protein BRMS1L, U3A cells
# Sequence of proteins of U3A human fibrosarcoma cells (4462 proteins detected) (Homo sapiens, UniProt Q5PSV4) (Q5PSV4 whole entry): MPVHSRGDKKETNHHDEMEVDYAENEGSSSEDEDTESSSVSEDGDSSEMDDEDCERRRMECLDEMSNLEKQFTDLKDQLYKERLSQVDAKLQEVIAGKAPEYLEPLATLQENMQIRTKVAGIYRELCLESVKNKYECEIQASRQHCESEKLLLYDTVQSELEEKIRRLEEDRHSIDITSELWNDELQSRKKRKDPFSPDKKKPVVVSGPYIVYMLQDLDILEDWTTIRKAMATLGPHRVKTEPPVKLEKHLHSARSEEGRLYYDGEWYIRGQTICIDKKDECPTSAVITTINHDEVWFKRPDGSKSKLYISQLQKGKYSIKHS
# [14] = target: proteins of U3A human fibrosarcoma cells (4462 proteins detected) (Homo sapiens, UniProt Q05397); details: protein PTK2; U3A cells
# [15] = target: proteins of U3A human fibrosarcoma cells (4462 proteins detected) (Homo sapiens, UniProt Q15084); details: protein PDIA6; U3A cells
# Sequence of proteins of U3A human fibrosarcoma cells (4462 proteins detected) (Homo sapiens, UniProt Q15084) (Q15084 20-440): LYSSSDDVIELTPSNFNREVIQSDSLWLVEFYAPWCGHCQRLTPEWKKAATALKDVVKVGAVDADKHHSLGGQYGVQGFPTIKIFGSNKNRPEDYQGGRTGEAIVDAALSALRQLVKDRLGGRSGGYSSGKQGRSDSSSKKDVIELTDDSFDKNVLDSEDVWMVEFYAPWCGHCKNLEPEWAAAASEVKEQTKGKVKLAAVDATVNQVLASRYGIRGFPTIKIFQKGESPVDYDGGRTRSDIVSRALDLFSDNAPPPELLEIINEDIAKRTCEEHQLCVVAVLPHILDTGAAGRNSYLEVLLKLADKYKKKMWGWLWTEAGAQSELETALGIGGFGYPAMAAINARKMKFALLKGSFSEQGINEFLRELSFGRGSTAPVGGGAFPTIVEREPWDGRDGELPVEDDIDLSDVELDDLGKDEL
# [16] = target: proteins of U3A human fibrosarcoma cells (4462 proteins detected) (Homo sapiens, UniProt Q6UWP8); details: protein SBSN, U3A cells
# [17] = target: proteins of U3A human fibrosarcoma cells (4462 proteins detected) (Homo sapiens, UniProt Q13131); details: protein PRKAA1; U3A cells
# [18] = target: proteins of U3A human fibrosarcoma cells (4462 proteins detected) (Homo sapiens, UniProt Q8IXQ4); details: protein GPALPP1, U3A cells
# Sequence of proteins of U3A human fibrosarcoma cells (4462 proteins detected) (Homo sapiens, UniProt Q8IXQ4) (Q8IXQ4 whole entry): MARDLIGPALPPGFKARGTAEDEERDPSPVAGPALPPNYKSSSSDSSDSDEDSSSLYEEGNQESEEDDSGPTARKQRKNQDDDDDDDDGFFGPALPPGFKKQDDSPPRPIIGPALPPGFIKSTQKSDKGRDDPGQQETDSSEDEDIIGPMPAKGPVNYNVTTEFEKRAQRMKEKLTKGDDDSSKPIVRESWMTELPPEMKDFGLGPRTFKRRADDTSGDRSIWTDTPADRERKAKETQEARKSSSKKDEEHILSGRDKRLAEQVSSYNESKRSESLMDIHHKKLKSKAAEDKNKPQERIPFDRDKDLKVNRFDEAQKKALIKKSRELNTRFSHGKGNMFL
# [19] = target: proteins of U3A human fibrosarcoma cells (4462 proteins detected) (Homo sapiens, UniProt P52943); details: protein CRIP2, U3A cells
# [20] = target: proteins of U3A human fibrosarcoma cells (4462 proteins detected) (Homo sapiens, UniProt Q14839); details: protein CHD4; soluble abundance after heat, U3A cells
# Sequence of proteins of U3A human fibrosarcoma cells (4462 proteins detected) (Homo sapiens, UniProt Q14839) (Q14839 whole entry): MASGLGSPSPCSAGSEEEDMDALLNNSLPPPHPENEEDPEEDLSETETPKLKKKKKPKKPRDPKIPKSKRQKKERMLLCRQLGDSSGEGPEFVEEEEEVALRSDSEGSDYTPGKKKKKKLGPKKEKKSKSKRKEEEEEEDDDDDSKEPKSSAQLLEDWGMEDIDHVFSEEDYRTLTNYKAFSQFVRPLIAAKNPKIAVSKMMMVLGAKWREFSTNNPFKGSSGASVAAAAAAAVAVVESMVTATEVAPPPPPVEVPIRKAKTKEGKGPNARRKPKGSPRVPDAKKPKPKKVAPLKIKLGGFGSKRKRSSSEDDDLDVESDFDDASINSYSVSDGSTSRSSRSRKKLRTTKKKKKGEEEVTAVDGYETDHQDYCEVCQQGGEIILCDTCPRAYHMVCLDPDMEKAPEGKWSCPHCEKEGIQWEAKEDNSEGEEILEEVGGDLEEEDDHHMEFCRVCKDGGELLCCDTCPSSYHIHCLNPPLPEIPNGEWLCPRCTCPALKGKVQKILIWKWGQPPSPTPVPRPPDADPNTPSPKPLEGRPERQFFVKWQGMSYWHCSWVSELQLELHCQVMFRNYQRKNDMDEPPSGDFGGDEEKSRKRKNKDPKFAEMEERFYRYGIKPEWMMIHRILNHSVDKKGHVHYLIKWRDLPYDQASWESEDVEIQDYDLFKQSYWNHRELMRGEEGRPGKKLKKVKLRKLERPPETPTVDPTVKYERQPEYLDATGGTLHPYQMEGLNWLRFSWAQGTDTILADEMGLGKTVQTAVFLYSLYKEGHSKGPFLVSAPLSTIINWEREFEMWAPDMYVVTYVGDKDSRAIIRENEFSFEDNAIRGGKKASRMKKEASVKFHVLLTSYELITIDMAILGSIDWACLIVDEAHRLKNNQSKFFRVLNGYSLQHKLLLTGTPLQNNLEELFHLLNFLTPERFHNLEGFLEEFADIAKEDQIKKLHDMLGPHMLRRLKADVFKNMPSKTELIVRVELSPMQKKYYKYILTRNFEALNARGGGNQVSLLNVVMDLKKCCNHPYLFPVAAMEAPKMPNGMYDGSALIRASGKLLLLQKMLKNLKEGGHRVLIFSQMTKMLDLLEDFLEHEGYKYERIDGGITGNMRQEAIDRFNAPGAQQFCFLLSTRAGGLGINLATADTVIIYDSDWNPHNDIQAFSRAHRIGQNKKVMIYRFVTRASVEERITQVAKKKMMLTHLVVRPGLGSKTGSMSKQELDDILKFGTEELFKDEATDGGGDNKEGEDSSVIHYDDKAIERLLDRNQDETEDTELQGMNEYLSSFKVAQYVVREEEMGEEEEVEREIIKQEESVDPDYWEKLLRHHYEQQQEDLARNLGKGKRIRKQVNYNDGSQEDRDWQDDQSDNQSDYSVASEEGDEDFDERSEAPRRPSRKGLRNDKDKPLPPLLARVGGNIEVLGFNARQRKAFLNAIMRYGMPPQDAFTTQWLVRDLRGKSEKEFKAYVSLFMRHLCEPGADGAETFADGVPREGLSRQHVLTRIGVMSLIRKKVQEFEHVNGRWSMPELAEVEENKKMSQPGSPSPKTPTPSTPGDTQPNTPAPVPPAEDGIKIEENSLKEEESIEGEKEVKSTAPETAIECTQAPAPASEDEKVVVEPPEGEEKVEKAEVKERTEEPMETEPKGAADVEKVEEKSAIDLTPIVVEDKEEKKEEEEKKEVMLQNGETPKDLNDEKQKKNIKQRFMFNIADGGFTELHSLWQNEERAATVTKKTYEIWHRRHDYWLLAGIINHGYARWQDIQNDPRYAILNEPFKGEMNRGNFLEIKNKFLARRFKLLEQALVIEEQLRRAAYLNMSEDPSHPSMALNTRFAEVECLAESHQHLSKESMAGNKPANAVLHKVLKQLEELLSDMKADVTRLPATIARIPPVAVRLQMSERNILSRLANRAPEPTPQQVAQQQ
# [21] = target: proteins of U3A human fibrosarcoma cells (4462 proteins detected) (Homo sapiens, UniProt Q9UJU6); details: protein DBNL, U3A cells
# [22] = target: proteins of U3A human fibrosarcoma cells (4462 proteins detected) (Homo sapiens, UniProt Q16401); details: protein PSMD5; soluble abundance after heat, U3A cells
# [23] = target: proteins of U3A human fibrosarcoma cells (4462 proteins detected) (Homo sapiens, UniProt Q9BZJ0); details: protein CRNKL1; U3A cells
# [24] = target: proteins of U3A human fibrosarcoma cells (4462 proteins detected) (Homo sapiens, UniProt O94925); details: protein GLS; U3A, 10 μM, 2 h
# [25] = target: proteins of U3A human fibrosarcoma cells (4462 proteins detected) (Homo sapiens, UniProt Q96TA2); details: protein YME1L1; U3A cells
# [26] = target: proteins of U3A human fibrosarcoma cells (4462 proteins detected) (Homo sapiens, UniProt Q9UIC8); details: protein LCMT1, U3A cells
# Sequence of proteins of U3A human fibrosarcoma cells (4462 proteins detected) (Homo sapiens, UniProt Q9UIC8) (Q9UIC8 whole entry): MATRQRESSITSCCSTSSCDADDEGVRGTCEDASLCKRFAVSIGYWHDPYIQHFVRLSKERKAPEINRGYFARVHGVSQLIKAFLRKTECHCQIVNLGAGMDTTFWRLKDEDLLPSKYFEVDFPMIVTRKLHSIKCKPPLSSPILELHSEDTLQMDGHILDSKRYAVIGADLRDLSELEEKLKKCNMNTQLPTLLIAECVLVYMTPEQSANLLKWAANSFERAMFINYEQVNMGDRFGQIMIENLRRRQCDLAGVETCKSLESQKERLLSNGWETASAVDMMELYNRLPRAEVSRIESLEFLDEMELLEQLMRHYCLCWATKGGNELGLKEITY
# [27] = target: proteins of U3A human fibrosarcoma cells (4462 proteins detected) (Homo sapiens, UniProt Q7Z3E5); details: protein ARMC9; U3A, 10 μM, 2 h
# [28] = target: proteins of U3A human fibrosarcoma cells (4462 proteins detected) (Homo sapiens, UniProt O60749); details: protein SNX2; U3A cells
# [29] = target: proteins of U3A human fibrosarcoma cells (4462 proteins detected) (Homo sapiens, UniProt P30519); details: protein HMOX2; U3A, 10 μM, 2 h
# [30] = target: proteins of U3A human fibrosarcoma cells (4462 proteins detected) (Homo sapiens, UniProt Q96TC7); details: protein RMDN3; U3A cells
# Sequence of proteins of U3A human fibrosarcoma cells (4462 proteins detected) (Homo sapiens, UniProt Q96TC7) (Q96TC7 whole entry): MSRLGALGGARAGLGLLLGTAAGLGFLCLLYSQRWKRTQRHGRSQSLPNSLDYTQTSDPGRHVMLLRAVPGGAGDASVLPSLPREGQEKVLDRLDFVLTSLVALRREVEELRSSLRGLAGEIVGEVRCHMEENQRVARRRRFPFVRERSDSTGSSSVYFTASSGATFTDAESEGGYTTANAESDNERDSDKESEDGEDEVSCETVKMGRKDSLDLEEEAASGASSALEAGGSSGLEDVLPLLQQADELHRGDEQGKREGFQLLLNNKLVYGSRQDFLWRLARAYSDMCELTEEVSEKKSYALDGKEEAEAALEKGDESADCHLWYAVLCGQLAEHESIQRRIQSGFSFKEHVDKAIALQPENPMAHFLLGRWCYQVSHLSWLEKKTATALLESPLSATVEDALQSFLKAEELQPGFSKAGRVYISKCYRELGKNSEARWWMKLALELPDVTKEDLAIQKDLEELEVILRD
structure (smiles),measurement,setting,value
CCc1nc(N)nc(N)c1-c1ccc(Cl)cc1 [pyrimethamine],"Log2 (PYR/DMSO), RFC4",[1],0.27
same,Log2 (PYR/DMSO),[2],0.21
same,Log2 (PYR/DMSO),[3],0.16
same,Log2 (PYR/DMSO),[4],0.14
same,Log2 (PYR/DMSO),[5],0.14
same,Log2 (PYR/DMSO),[6],-0.04
same,Log2 (PYR/DMSO),[7],0.17
same,"Log2 (PYR/DMSO), MRPL37",[8],0.29
same,Log2 (PYR/DMSO),[9],-0.04
same,Log2 (PYR/DMSO),[10],0.16
same,Log2 (PYR/DMSO),[11],0.15
same,Log2 (PYR/DMSO),[12],0.19
same,Log2 (PYR/DMSO),[13],-0.04
same,Log2 (PYR/DMSO),[14],0.16
same,Log2 (PYR/DMSO),[15],0.16
same,Log2 (PYR/DMSO),[16],-0.05
same,Log2 (PYR/DMSO),[17],0.19
same,Log2 (PYR/DMSO),[18],-0.04
same,Log2 (PYR/DMSO),[19],-0.04
same,Log2 (PYR/DMSO),[20],0.14
same,Log2 (PYR/DMSO),[21],-0.04
same,Log2 (PYR/DMSO),[22],0.14
same,Log2 (PYR/DMSO),[23],0.16
same,"Log2 (PYR/DMSO), GLS",[24],0.24
same,Log2 (PYR/DMSO),[25],0.16
same,Log2 (PYR/DMSO),[26],-0.04
same,"Log2 (PYR/DMSO), ARMC9",[27],-0.15
same,Log2 (PYR/DMSO),[28],0.17
same,"Log2 (PYR/DMSO), HMOX2",[29],0.25
same,Log2 (PYR/DMSO),[30],0.15
